“And” between values parts separate entries of the source, which are not always exact repeats. Identical values can stand only once. Like-named read-outs stand apart in the source and are kept apart here.
How the values were obtained:
HepaRG spheroids = assay: HepaRG 3D spheroids, cell and mitochondrial health markers, 14 days; details: for AC50: Homo sapiens, HepaRG
Protocol: Hepatic spheroids were formed by seeding HepaRG™ cells into round-bottom ultra-low adhesion 96-well spheroid plates (Corning®) in 3D liver media with 0.5% DMSO, 100 U/mL penicillin, and 100 mg/L streptomycin. Cells were incubated at 37°C and 5% CO2 until spheroid formation and then compound-treated. The test compound was diluted in the vehicle, and serial dilutions were made in a 0.5% vehicle in HepaRG™ induction media. […] L-buthionine sulfoximine was used as positive control for GSH content, whereas rotenone was simultaneously used as a positive control for mitochondrial dysfunction and ATP content. At the end of the incubation period, the cells were loaded with the relevant dye for each cell health marker: DNA structure–Hoescht, GSH content–mBCL, ROS formation–DHE, mitochondrial dysfunction–MitoTracker, and cellular ATP content–CellTiter-Glo®, Promega. The plate was then scanned using an automated confocal fluorescent cellular imager, ArrayScan® XTI (Thermo Scientific Cellomics) at 37°C and 5% CO2. Further, the cellular ATP content was measured using CellTiter-Glo® (Promega, USA).

[1] = Single-dose pharmacokinetics in monkeys (p.o. and i.v.); type: in vivo, monkey; details: for bioavailability: p.o. vs i.v., read-out: F (bioavailability)
[2] = Stability in cryopreserved hepatocytes, rat; type: in vitro ADME; details: for Compound Remaining (% of 0 min): Hepatocyte Stability Rat, single replicates
Protocol: The final incubation volume was 500 μL. Two control compounds (verapamil and donepezil) were included for each microsomal species, along with the appropriate vehicle control. The reactions were terminated by transferring 50 μL of incubate to 100 μL methanol containing an internal standard (metoprolol) at appropriate time points (0, 10, 20, 40, 60, and 120 min for the test compound and 0, 5, 10, 20, 40, and 60 min for the control compounds). The termination plates were centrifuged at 4000 x g at 4°C for 30 min to precipitate the protein. The supernatants were then collected for analysis, and LC-MS/MS was used for detection purposes. The system consisted of an Acquity™ Binary Solvent Manager, Acquity™ 4-position heated column manager, 2777 Ultra High Pressure Autosampler, and a Xevo-TQ MS triple quadrupole mass spectrometer (Waters Ltd., Herts, UK). This process was carried out twice.

[3] = Metabolite profiling, rat hepatocytes; type: in vitro ADME; details: 10 μM CPL207280, 120 min, ND = not detected
Protocol: Suspensions of cryopreserved human, rat, and monkey hepatocytes were pooled from a minimum of three individuals. All cryopreserved hepatocytes were purchased from a commercial supplier. […] The cell density was 0.5 ×10^6 viable cells/mL. The final DMSO concentration during the incubation was 0.25%. Control incubations were performed in lysed cells to reveal any non-enzymatic degradation. Two control compounds were identified in each species. Samples (50 μL) were removed from the incubation mixture at 0, 10, 20, 40, 60, and 120 min and added to methanol containing an internal standard (100 μL) to stop the reaction. The samples were centrifuged (4000 x g at 4°C for 30 min) and the supernatants at each time point were pooled for analysis by LC MS/MS using Cyprotex generic methods. Following hepatocyte stability assays, the samples were utilized for metabolite profiling. […] Metabolites were characterized using a mass spectrometer comprising Waters Xevo QT of G2-S, Acquity Binary Solvent Manager, Acquity Column Manager, and 2777 Autosampler.

[4] = cryopreserved hepatocytes (suspension), Rat (Sprague Dawley) hepatocytes, mean n = 2

## CC#C[C@@H](CC(=O)O)c1ccc(OCC(C)=C(C)C)cc1 [CPL207280]
HepaRG spheroids; CONC 0.0457 uM, TIMEPOINT 336
  Cellular ATP Mean Plotted Value: 0.883
  DNA structure Mean Plotted Value: 1.26
  Glutathione content Mean Plotted Value: 0.866
  Mitochondrial mass Mean Plotted Value: 0.982
  Mitochondrial membrane potential Mean Plotted Value: 1.25
  Oxidative stress Mean Plotted Value: 1.15
  Spheroid count Mean Plotted Value: 1
  Spheroid size Mean Plotted Value: 0.924
HepaRG spheroids; CONC 0.137 uM, TIMEPOINT 336
  Cellular ATP Mean Plotted Value: 1.01
  DNA structure Mean Plotted Value: 1.14
  Glutathione content Mean Plotted Value: 1.11
  Mitochondrial mass Mean Plotted Value: 0.911
  Mitochondrial membrane potential Mean Plotted Value: 0.948
  Oxidative stress Mean Plotted Value: 1.02
  Spheroid count Mean Plotted Value: 1
  Spheroid size Mean Plotted Value: 0.943
HepaRG spheroids; CONC 0.412 uM, TIMEPOINT 336
  Cellular ATP Mean Plotted Value: 1.03
  DNA structure Mean Plotted Value: 1.12
  Glutathione content Mean Plotted Value: 1.09
  Mitochondrial mass Mean Plotted Value: 1
  Mitochondrial membrane potential Mean Plotted Value: 0.994
  Oxidative stress Mean Plotted Value: 1.02
  Spheroid count Mean Plotted Value: 1
  Spheroid size Mean Plotted Value: 0.942
HepaRG spheroids; CONC 3.7 uM, TIMEPOINT 336
  Cellular ATP Mean Plotted Value: 0.907
  DNA structure Mean Plotted Value: 0.692
  Glutathione content Mean Plotted Value: 0.924
  Mitochondrial mass Mean Plotted Value: 0.944
  Mitochondrial membrane potential Mean Plotted Value: 0.773
  Oxidative stress Mean Plotted Value: 1.02
  Spheroid count Mean Plotted Value: 1
  Spheroid size Mean Plotted Value: 0.935
HepaRG spheroids; CONC 33.3 uM, TIMEPOINT 336
  Cellular ATP Mean Plotted Value: 0.845
  DNA structure Mean Plotted Value: 0.889
  Glutathione content Mean Plotted Value: 0.907
  Mitochondrial mass Mean Plotted Value: 0.989
  Mitochondrial membrane potential Mean Plotted Value: 0.908
  Oxidative stress Mean Plotted Value: 1.13
  Spheroid count Mean Plotted Value: 1
  Spheroid size Mean Plotted Value: 0.953
HepaRG spheroids; CONC 100 uM, TIMEPOINT 336
  Cellular ATP Mean Plotted Value: 0.491
  DNA structure Mean Plotted Value: 0.692
  Glutathione content Mean Plotted Value: 0.767
  Mitochondrial mass Mean Plotted Value: 0.865
  Mitochondrial membrane potential Mean Plotted Value: 0.94
  Oxidative stress Mean Plotted Value: 1.13
  Spheroid count Mean Plotted Value: 1
  Spheroid size Mean Plotted Value: 0.861
HepaRG spheroids; HepaRG spheroid, TIMEPOINT 336
  Cellular ATP MEC: 24.8 (NS) uM
HepaRG spheroids; HepaRG spheroid, TIMEPOINT 336, at the concentration (uM) given
  Cellular ATP MR (% @ concentration): 48%
HepaRG spheroids; HepaRG spheroid, TIMEPOINT 336, plotted value at the concentration given
  Cellular ATP MR: 0.491
HepaRG spheroids; 336 h, read-out: Estimated AC50 (95% CI), Cellular ATP
  AC50: > 100 µM
HepaRG spheroids; 336 h, read-out: Estimated AC50 (95% CI), DNA structure
  AC50: > 100 µM
HepaRG spheroids; 336 h, read-out: Estimated AC50 (95% CI), Glutathione content
  AC50: > 100 µM
HepaRG spheroids; 336 h, read-out: Estimated AC50 (95% CI), Mitochondrial mass
  AC50: > 100 µM
HepaRG spheroids; 336 h, read-out: Estimated AC50 (95% CI), Mitochondrial membrane potential
  AC50: > 100 µM
HepaRG spheroids; 336 h, read-out: Estimated AC50 (95% CI), Oxidative stress
  AC50: > 100 µM
HepaRG spheroids; 336 h, read-out: Estimated AC50 (95% CI), Spheroid count
  AC50: > 100 µM
HepaRG spheroids; 336 h, read-out: Estimated AC50 (95% CI), Spheroid size
  AC50: > 100 µM
HepaRG spheroids; read-out: DNA structure AC50
  AC50: > 100 µM
HepaRG spheroids; read-out: Glutathione content AC50
  AC50: > 100 µM
HepaRG spheroids; read-out: Mitochondrial mass AC50
  AC50: > 100 µM
HepaRG spheroids; read-out: Mitochondrial membrane potential AC50
  AC50: > 100 µM
HepaRG spheroids; read-out: Oxidative stress AC50
  AC50: > 100 µM
HepaRG spheroids; read-out: Spheroid count AC50
  AC50: > 100 µM
HepaRG spheroids; read-out: Spheroid size AC50
  AC50: > 100 µM
HepaRG spheroids; summary comparison CPL207280 vs TAK-875
  Mitochondria Injury: <
[1]; cynomolgus, monkey, plasma, 6 mg/kg, monkey, dose 6 mg/kg, Day 1, individual animals
  Cmax: 199 ng/mL
[1]; monkey, 0,5 mg/kg i.v., 0.5 h, single animals
  plasma conc: 643.5 and 572.2
[1]; monkey, 0,5 mg/kg i.v., 1 h, single animals
  plasma conc: 149.8 and 119.5
[1]; monkey, 0,5 mg/kg i.v., 2 h, single animals
  plasma conc: 95.2 and 24.4 and 69.6
[1]; monkey, 0,5 mg/kg i.v., 4 h, single animals
  plasma conc: 49.5 and 52.7 and 23.2
[1]; monkey, 0,5 mg/kg i.v., 6 h, single animals
  plasma conc: 17.1 and 41 and 11.9
[1]; monkey, 0,5 mg/kg i.v., 8 h, single animals
  plasma conc: 17.5 and 13.5
[1]; monkey, 0,5 mg/kg i.v., 12 h, single animals
  plasma conc: 6.2 and 10.5 and 4
[1]; monkey, 0,5 mg/kg i.v., 24 h, single animals
  plasma conc: 1.1 and 1.6 and 0
[1]; monkey, 1,5 mg/kg p.o., 0 h, single animals
  plasma conc: 0
[1]; monkey, 1,5 mg/kg p.o., 0.5 h, single animals
  plasma conc: 806.5 and 1491 and 408.8
[1]; monkey, 1,5 mg/kg p.o., 1 h, single animals
  plasma conc: 1309.1 and 1299.9
[1]; monkey, 1,5 mg/kg p.o., 2 h, single animals
  plasma conc: 1251.6 and 605.2 and 1177.7
[1]; monkey, 1,5 mg/kg p.o., 4 h, single animals
  plasma conc: 75.2 and 203.9 and 54.2
[1]; monkey, 1,5 mg/kg p.o., 8 h, single animals
  plasma conc: 31 and 109.7 and 13.2
[1]; monkey, 1,5 mg/kg p.o., 12 h, single animals
  plasma conc: 13.7 and 53.4 and 8.1
[1]; monkey, 1,5 mg/kg p.o., 24 h, single animals
  plasma conc: 1.6 and 5.3 and 0
[1]; monkey, dose 6 mg/kg, Day 1, individual animals, 6 mg/kg
  exposure - AUC: 31225 ng·h/mL and 16287 ng·h/mL
[1]; monkey, plasma, 6 mg/kg, monkey, dose 6 mg/kg, Day 1, individual animals, read-out: exposure - AUC
  AUC: 18200 ng·h/mL
[1]; monkey, plasma, intravenous, 0.5 mg/kg, monkey, 0,5 mg/kg i.v., 0.5 h, single animals, read-out: plasma conc
  concentration at 0.5 h: 704 ng/mL
[1]; monkey, plasma, intravenous, 0.5 mg/kg, monkey, 0,5 mg/kg i.v., 1 h, single animals, read-out: plasma conc
  concentration at 1 h: 198 ng/mL
[1]; monkey, plasma, intravenous, 0.5 mg/kg, monkey, 0,5 mg/kg i.v., 8 h, single animals, read-out: plasma conc
  concentration at 8 h: 10.2 ng/mL
[1]; monkey, plasma, intravenous, monkeys, single dose
  k el: 5.56e-05 s⁻¹
[1]; monkey, plasma, iv, 0.5 mg/kg, monkeys, 0,5 mg/kg i.v., n = 3
  Cmax: 3120 ± 161 ng/mL
[1]; monkey, plasma, iv, 0.5 mg/kg, monkeys, 0,5 mg/kg i.v.
  Tmax: 0.083 h
[1]; monkey, plasma, iv, 0.5 mg/kg, monkeys, 0,5 mg/kg i.v., read-out: AUC
  AUC: 1370 ± 194 ng·h/mL
[1]; monkey, plasma, oral, 1.5 mg/kg, monkey, 1,5 mg/kg p.o., 0 h, single animals, read-out: plasma conc
  concentration at 0 h: 0 ng/mL
[1]; monkey, plasma, oral, 1.5 mg/kg, monkey, 1,5 mg/kg p.o., 1 h, single animals, read-out: plasma conc
  concentration at 1 h: 2250 ng/mL
[1]; monkey, plasma, oral, 1.5 mg/kg, monkeys
  bioavailability: ~99%
[1]; monkey, plasma, po, 1.5 mg/kg, monkeys, 1,5 mg/kg p.o., n = 3
  Cmax: 1680 ± 502 ng/mL
[1]; monkey, plasma, po, 1.5 mg/kg, monkeys, 1,5 mg/kg p.o.
  Tmax: 1 h
[1]; monkey, plasma, po, 1.5 mg/kg, monkeys, 1,5 mg/kg p.o., read-out: AUC
  AUC: 4060 ± 794 ng·h/mL
[1]; monkey, plasma, po, 1.5 mg/kg, monkeys
  bioavailability: 99%
[2]; 0 min
  Compound Remaining (% of 0 min): 100 % of 0 min
[2]; 10 min
  Compound Remaining (% of 0 min): 101 % of 0 min and 81.5 % of 0 min
[2]; 20 min
  Compound Remaining (% of 0 min): 79.0 % of 0 min and 77.8 % of 0 min
[2]; 40 min
  Compound Remaining (% of 0 min): 77.7 % of 0 min and 66.7 % of 0 min
[2]; 60 min
  Compound Remaining (% of 0 min): 72.8 % of 0 min and 73.3 % of 0 min
[2]; 120 min
  Compound Remaining (% of 0 min): 65.3 % of 0 min and 56.0 % of 0 min
[2]; [4]
  half-life at 3 μM: 3.1 h
  microsomal CLint at 3 μM: 7.51 µL/min/mg
[3]
  rat % of parent at 120 min: 57.6%

From paper PMC8459971, “Evaluation of the hepatotoxicity of the novel GPR40 (FFAR1) agonist CPL207280 in the rat and monkey” (PLoS ONE, 2021)
